The record followed here is patent US8754095B2, “Substituted N-heterocycloalkyl bipyrrolidinylphenyl amide derivatives, preparation and therapeutic use thereof” (Sanofi, priority 2010, dated 2014).

Counter-ions that a name gives are not always drawn.

In series [1] the target is T1, rhesus (Macacca Mulatta) H3 receptor (Macaca mulatta, UniProt Q865E1).
T1 construct: pcDNA5/FRT/TO (Invitrogen) containing the rhesus monkey (Macacca Mulatta) 445 amino acid H3 receptor
Briefly: Rhesus H3 [3H]-Methylhistamine radioligand binding assay. Particulars: displacement of [3H]-Methylhistamine (2 nM), rhesus H3 membranes, Cheng-Prusoff. Also noted: species or system rhesus monkey (Macacca Mulatta). As for the experimental part:
Rhesus H3 membranes were prepared from the Flp-In T-REx 293 Cell Line (Invitrogen) stably transfected with pcDNA5/FRT/TO (Invitrogen) containing the rhesus monkey (Macacca Mulatta) 445 amino acid H3 receptor. (Genbank #AY231164). Stably transfected cultures were amplified in tissue culture flasks by standard tissue culture methods and induced to express rhesus H3 by exposure to 500 ng/ml tetracycline (Cellgro) for 24 hours. After induction, cells were dissociated from flasks utilizing Cell Stripper (Cellgro). Cells were centrifuged (1 K×g, 5 min) and pellet frozen in an ethanol-dry ice bath to disrupt cell membranes. Frozen cell pellet was re-suspended in 5 mM HEPES (pH 7.4, Invitrogen) at 10 ml/1000 cm2 of harvested cells. The cell suspension was drawn through an 18 gauge needle (2-3×) followed by a 23 gauge needle (2-3×) to further disrupt cell membranes. The cell suspension was centrifuged (40K×g, 30 min). Cell membrane pellet was re-suspended in 5 mM HEPES (pH 7.4, Invitrogen) at a final protein concentration of 10 mg/ml. Rhesus H3 membranes were stored under liquid nitrogen prior to use in [3]-Methylhistamine and GTPγS radioligand binding assays.
(§1) Rhesus H3 radioligand binding assay was performed using rhesus H3 receptor membranes (prepared as described above), [3H]-Methylhistamine (Perkin Elmer) and WGA SPA beads (wheat germ agglutinin scintillation proximity assay) beads (Amersham). The assay was performed in 96-well Opti-Plates (Packard). Each reaction contained 50 μl rhesus H3 membranes (20-30 μg total protein), 50 μl WGA SPA beads (0.1 μg) and 50 μl of 83 Ci/mmol [^3H]-Methylhistamine (final concentration 2 nM) and 50 μl of tested compound. The compounds of this invention and/or vehicle were diluted with binding buffer from 10 mM DMSO stocks. Assay plates were sealed with TopSeal (Perkin Elmer) and mixed on shaker (25° C., 1 hour). Assay plates were read on TopCount scintillation counter (Packard). Results were analyzed by Hill transformation and Ki values were determined by Cheng-Prusoff equation. Similar procedures were employed to determine the binding data for rat and mouse.
In general terms: Loss of bound radioactivity is the signal in a displacement assay; it reports binding, not function.

For a further series, the target named is Rat H3 (Rattus norvegicus, UniProt Q9QYN8). Put plainly: Rat H3 radioligand binding assay. Particulars: similar procedure as rhesus binding. As for the experimental part:
as §1

For another series, the target named is Mouse H3 (Mus musculus, UniProt P58406). Put plainly: Mouse H3 radioligand binding assay. Particulars: similar procedure as rhesus binding. As for the experimental part:
as §1

The subject of another series is Rats. Briefly: Forced-Swimming Test in Rats. The series is classed as in vivo. As to conditions: rat, p.o. twice, 5-min test. As for the experimental part:
This example further illustrates the study of efficacy of the compounds of this invention as antidepressive agents in animal models.
The procedure was a modification of that described by Porsolt et al. (1977) Depression: a new animal model sensitive to antidepressant treatments. Nature 266:730-2. Rats were placed in individual glass cylinder (40 cm height, 18 cm diameter) containing water (22-25° C.) to a height of 15 cm. Two swimming sessions were conducted (a 15-min training session followed 24 h later by a 5-min test). After each swimming session, rats were placed under a heating lamp to avoid hypothermia. The duration of immobility was measured during the 5-min test.
Example 1 of this invention was administered p.o. twice (15 min pre-test followed by first injection 24 h prior to 5 min test) at a dosage of 10 mg/kg.
Example 2 of this invention was administered p.o. twice (15 min pre-test followed by first injection 24 h prior to 5 min test) at a dosage levels of 0.1, 1, and 10 mg/kg.

Sequence of Rat H3 (Q9QYN8 whole entry): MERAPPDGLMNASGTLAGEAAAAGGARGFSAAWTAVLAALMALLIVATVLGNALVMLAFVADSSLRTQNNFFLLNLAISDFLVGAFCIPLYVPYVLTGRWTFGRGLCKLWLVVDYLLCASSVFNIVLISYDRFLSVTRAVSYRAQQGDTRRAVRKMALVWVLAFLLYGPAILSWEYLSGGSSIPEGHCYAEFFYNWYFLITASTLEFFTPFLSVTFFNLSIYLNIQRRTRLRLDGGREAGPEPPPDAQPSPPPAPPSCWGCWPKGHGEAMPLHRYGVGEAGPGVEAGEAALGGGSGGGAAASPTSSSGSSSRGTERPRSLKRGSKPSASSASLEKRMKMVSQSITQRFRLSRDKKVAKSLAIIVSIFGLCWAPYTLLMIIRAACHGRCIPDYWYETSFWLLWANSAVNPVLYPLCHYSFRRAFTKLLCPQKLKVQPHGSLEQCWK
T1 sequence (Q865E1 1-445): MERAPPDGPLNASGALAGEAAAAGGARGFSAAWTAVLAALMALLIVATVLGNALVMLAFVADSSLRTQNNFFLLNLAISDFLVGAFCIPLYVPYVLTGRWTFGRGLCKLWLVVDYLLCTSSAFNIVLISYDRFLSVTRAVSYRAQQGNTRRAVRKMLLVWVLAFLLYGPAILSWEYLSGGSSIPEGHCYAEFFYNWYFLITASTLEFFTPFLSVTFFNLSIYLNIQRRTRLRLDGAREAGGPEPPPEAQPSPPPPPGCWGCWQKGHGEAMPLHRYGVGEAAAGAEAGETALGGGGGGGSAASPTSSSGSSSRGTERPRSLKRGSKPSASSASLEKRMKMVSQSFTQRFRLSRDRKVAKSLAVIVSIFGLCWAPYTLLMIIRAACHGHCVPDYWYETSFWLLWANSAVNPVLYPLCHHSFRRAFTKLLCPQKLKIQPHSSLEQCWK
Sequence of Mouse H3 (P58406 whole entry): as the sequence (Q9QYN8 whole entry) above, with T15A, A286T, A290G, R387H, I389V counted along it

For the molecule `C[C@H]1CCCN1[C@H]1CCN(c2ccc(CC(=O)NC3CCOCC3)cc2)C1` [Example 1, 2-[4-((2S,3′S)-2-Methyl-[1,3′]bipyrrolidinyl-1′-yl)-phenyl]-N-(tetrahydro-pyran-4-yl)-acetamide], the Ki (as a rule, the equilibrium dissociation constant of an inhibitor or competing ligand from its target) in series [1] turned out to be 2.5 nM; at Rat H3, 8.32 nM; at Mouse H3 it was 10.8 nM. For the same molecule, the “activity in forced-swimming test (duration of immobility)” value in the series on Rats (10 mg/kg) is given as “active”.
As to `C[C@H]1CCCN1[C@H]1CCN(c2ccc3cc(C(=O)NC4CCOCC4)ccc3c2)C1` [Example 2, 6-((2S,3′S)-2-Methyl-[1,3′]bipyrrolidinyl-1′-yl)-naphthalene-2-carboxylic acid (tetrahydro-pyran-4-yl)amide], the Ki in series [1] came to 2.99 nM; on Rat H3 it was 9.79 nM; at Mouse H3, 19.6 nM. Moreover, the “activity in forced-swimming test (duration of immobility)” value with Rats (0.1 mg/kg), in the series on Rats (1 mg/kg) and in the series on Rats (10 mg/kg) was “active” throughout.
Regarding `C[C@H]1CCCN1[C@H]1CCN(c2ccc(C(=O)NC3CCOCC3)cc2)C1` [Example 3, 4-((2S,3′S)-2-Methyl-[1,3′]bipyrrolidinyl-1′-yl)-N-(tetrahydro-pyran-4-yl)-benzamide], the melting point (commonly the temperature of the solid-liquid transition) stood at 180 °C. In series [1], this molecule registered a Ki of 1.98 nM. This molecule also returned a Ki at Rat H3 of 15 nM. The Ki at Mouse H3 was 10.1 nM.
`Cc1cc(N2CC[C@H](N3CCC[C@@H]3C)C2)ccc1C(=O)NC1CCOCC1` [Example 4, 2-Methyl-4-((2S,3′S)-2-methyl-[1,3′]bipyrrolidinyl-1′-yl)-N-(tetrahydro-pyran-4-yl)-benzamide] returned a melting point of 147 °C. The molecule further had a Ki in series [1] of 1.52 nM. At Rat H3, this molecule had a Ki of 19.7 nM. In addition, at Mouse H3, affinity was put at a Ki of 12.1 nM.
For the molecule `C[C@H]1CCCN1[C@H]1CCN(c2ccc(C(=O)NCC3CCOCC3)cc2)C1` [Example 5, 4-((2S,3′S)-2-Methyl-[1,3′]bipyrrolidinyl-1′-yl)-N-(tetrahydro-pyran-4-ylmethyl)-benzamide], the Ki in series [1] amounted to 1.24 nM; at Rat H3, 19.1 nM; on Mouse H3 it was 40.3 nM.
In the case of `C[C@H]1CCCN1[C@H]1CCN(c2ccc(CC(=O)NC3CCN(C(=O)OC(C)(C)C)CC3)cc2)C1` [Example 6], the figures for the Ki (in series [1]; on Rat H3) were 2.75 nM and 19.4 nM, respectively.
For `C[C@H]1CCCN1[C@H]1CCN(c2ccc(CC(=O)NC3CCNCC3)cc2)C1` [Example 7, 2-[4-((2S,3′S)-2-Methyl-[1,3′]bipyrrolidinyl-1′-yl)-phenyl]-N-piperidin-4-yl-acetamide hydrochloride] the same measures were 0.804 nM and 1.12 nM.
The like results for `CCOC(=O)N1CCC(NC(=O)Cc2ccc(N3CC[C@H](N4CCC[C@@H]4C)C3)cc2)CC1` [Example 8, 4-{2-[4-((2S,3′S)-2-Methyl-[1,3′]bipyrrolidinyl-1′-yl)-phenyl]-acetylamino}-piperidine-1-carboxylic acid ethyl ester] were, in that order, 1.59 nM and 8.25 nM.
The like results for `C[C@H]1CCCN1[C@H]1CCN(c2ccc(CC(=O)NC3CCN(CC4CCCC4)CC3)cc2)C1` [Example 9, N-(1-Cyclopentylmethyl-piperidin-4-yl)-2-[4-((2S,3′S)-2-methyl-[1,3′]bipyrrolidinyl-1′-yl)-phenyl]-acetamide] were, in that order, 0.69 nM and 1.26 nM.
Turning to `CNC(=O)C1CCN(Cc2ccc(N3CC[C@H](N4CCC[C@@H]4C)C3)cc2)CC1` [Example 10, 1-[4-((2S,3′S)-2-Methyl-[1,3′]bipyrrolidinyl-1′-yl)-benzyl]-piperidine-4-carboxylic acid methylamide; hydrochloride], the values for the Ki (in series [1]; at Rat H3; at Mouse H3) were 0.466 nM, 0.929 nM and 4.4 nM, respectively.
